In patent publication US8859026B2, “Method for reducing methoxypyrazines in grapes and grape products” (Brock University, priority 2009, dated 2014):
Like-named read-outs stand apart in the source and are kept apart here.

How the values were obtained:
[1] = target: T1, rat OBP1F (rat OBP variant 1F), recombinant (Rattus norvegicus, UniProt P08937); experiment: 1-AMA fluorescence binding assay, rat OBP-1F
T1 construct: made in house; host or cells: Pichia pastoris (vector pPIC9; recombinant strain provided by J.-C; Pernollet, INRA)
T1 sequence (P08937 16-172): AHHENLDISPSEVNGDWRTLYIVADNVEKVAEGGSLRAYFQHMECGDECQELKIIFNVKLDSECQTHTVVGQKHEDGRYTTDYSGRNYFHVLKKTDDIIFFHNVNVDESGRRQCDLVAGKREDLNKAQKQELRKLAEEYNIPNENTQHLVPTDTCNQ
Procedure: (§1) The excitation wavelength of 290 nm was used and fluorescence emission intensities were monitored at 504 nm, 483 nm and 486 nm for rat OBP1F, piglet OBP and mouse MUPII respectively.
(§2) Fluorescence ligand binding experiments were performed on a Photon Technology International (London, Canada) Quanta Master Model QM2001 fluorometer at room temperature (19-20° C.), using 1 cm light path quartz cuvettes (Hellma). Slit width of 2 nm was used for excitation and emission for assaying a proteins except ratOBP1F, for which excitation and emission slit width of 6 nm was used.
(§3) Binding curves with 1-AMA were obtained by titrating protein (2 μM) in 50 mM sodium phosphate, pH 7.2 with ligand (0-50 uM, prepared gravimetrically as a 1 mM stock solution in 10% v/v methanol). To examine dependence of binding on pH, fluorescence spectra was measured in 50 mM citrate phosphate solutions at pH 3.0, 4.0 and 5.0. Fluorescence of 1-AMA was excited at 290 nm and emission was scanned from 450 to 550 nm.
(§4) Dissociation constants were calculated from a plot of fluorescence intensity against total ligand concentration fitted with non linear regression using Prism 3.02 (GraphPad Software Inc., La Jolla, Calif.).

[2] = target: T2, piglet OBP (pIOBP), Genbank AF436848, Uniprot Q8WMH1-1, SEQ ID NO: 3 (codon optimized) / SEQ ID NO: 4 (non-optimized), recombinant (Sus scrofa, UniProt P81245); experiment: 1-AMA fluorescence binding assay, piglet OBP; set-up: species or system pig (piglet/prepubertal)
T2 construct: S. cerevisiae alpha-mating factor secretion signal (pPIC9) (N); made in house; host or cells: Pichia pastoris GS115 (vector pPIC9)
T2 sequence (P81245 with tags, fused parts or gaps): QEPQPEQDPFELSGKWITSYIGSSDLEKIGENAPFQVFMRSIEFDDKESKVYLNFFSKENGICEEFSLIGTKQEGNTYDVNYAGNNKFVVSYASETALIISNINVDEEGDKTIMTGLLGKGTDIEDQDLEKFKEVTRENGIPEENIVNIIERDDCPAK
Source text: as §1
(§5) cDNA sequence encoding mature piglet OBP (Genbank AF436848) and the mouse MUPII (Genbank AJ309921) were designed for heterologous expression in the methylotrophic yeast P. pastoris as follows: at the 5′ end of coding sequences, native signal peptide sequences were removed and replaced with XhoI (CTC GAG ([SEQ ID NO: 1]) and prepro sequence of the S. cerevisiae α-mating factor (AAA AGA [SEQ ID NO:2]). A stop codon and an EcoRI restriction site were added at the 3′ terminus. The sequences were then optimized for G+C content and preferred codon usage in P. pastoris. Modified coding sequences were synthesized and cloned in frame with the α-mating factor secretion signal into the pPIC9 expression vector between the XhoI and EcoRI sites (GenScript Corp., Piscataway, N.J.). Further information about the protein sequences is provided below:
Uniprot ID Q8WMH1-1, Genbank AF436848. *chain comprises 158 residues *differs from adult isoform/variant by an additional lysine residue at the C terminal end. Tissue source for cloning and binding: vomeronasal organ, but the isomer is also found in both vomeronasal and nasal mucosa.
as §2, §3, §4

[3] = target: T3, mouse MUPII (mMUPII), Genbank AJ309921, Uniprot P11589, SEQ ID NO: 5, recombinant (Mus musculus, UniProt P11589); experiment: 1-AMA fluorescence binding assay, mouse MUPII
T3 construct: no tag mentioned
T3 sequence (P11589 19-180): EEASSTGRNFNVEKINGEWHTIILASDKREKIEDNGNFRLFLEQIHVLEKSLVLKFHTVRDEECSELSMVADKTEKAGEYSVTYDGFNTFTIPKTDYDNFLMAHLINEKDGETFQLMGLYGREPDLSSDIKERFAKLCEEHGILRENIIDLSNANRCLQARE
Source text: as §1, §5
3. mouse MUPII (MUPIIa Genbank AJ309921, MUP BL1 gene, Uniprot ID P11589)
as §2, §3, §4

rat OBP-1F = conditions: 1-AMA; Briand et al. 2000 (21); cited from earlier work
[4] = target: adult porcine OBP isoform; conditions: 1-AMA; Paolini et al. 1999 (26), Ramoni et al. 2007 (27); cited from earlier work
piglet OBP = target: T4, piglet OBP (Sus scrofa, UniProt P81245); experiment: Competitive fluorescent binding assay: displacement of 1-AMA from piglet OBP by odorants IPMP and IBMP; set-up: species or system porcine; conditions: for Kd: calculated from IC50, read-out: Kd for piglet OBP
T4 construct: made in house; host or cells: Pichia pastoris GS115 (pPIC9, alpha-mating factor secretion signal)
T4 sequence (P81245 with tags, fused parts or gaps): T2 sequence (P81245 with tags, fused parts or gaps)
Procedure: (§6) The interaction of odorants with AMA complex was examined by monitoring the decrease in fluorescence intensity of protein/1-AMA complex upon the addition of competitor compounds.
(§7) In competitive binding assays, 1-AMA (10 μM) was equilibrated with protein (2 μM) at pH 7.2 50 mM sodium phosphate buffer and pH 3.0 50 mM citrate phosphate buffer, and titrated with increasing concentrations of odorants (0-100 μM) solubilized in 10% v/v methanol.
(§8) The affinity of OBPs for odorants was estimated by plotting the decrease of intensity of 1-AMA fluorescence at the emission maximum, (22). Odorant concentrations causing fluorescence decay to half-maximal intensity (IC50 values) were determined from the plot of (I−Imin)/(I0−Imin) against the competitor concentration; I0 is the maximum of fluorescence intensity of the protein/1-AMA complex; I is the fluorescence intensity after addition of an aliquot of competitor, and Imin the fluorescence intensity at saturating concentration of the competitor.

[5] = target: T1, rat OBP1F (rat OBP variant 1F), recombinant; experiment: Competitive displacement of 1-AMA, rat OBP-1F; type: binding; conditions: pH 7.2
Procedure: (§9) Competitive binding assays were done with 2 uM protein pre equilibrated with five fold 1-AMA concentration (10 uM). Fluorescence decay of the protein/1-AMA complex is expressed as a ratio of initial and final fluorescence against the total competitor concentration: (I−Imin)/(Io−Imin) where Io=fluorescence intensity of the protein/1-AMA complex, Imin=fluorescence intensity at saturation, and I=fluorescence intensity at a given competitor concentration.
as §2, §6, §7, §8

[6] = target: T2, piglet OBP (pIOBP), Genbank AF436848, Uniprot Q8WMH1-1, SEQ ID NO: 3 (codon optimized) / SEQ ID NO: 4 (non-optimized), recombinant; experiment: Competitive displacement of 1-AMA, piglet OBP; type: binding, pig (piglet/prepubertal)
Procedure: as §9, §2, §6, §7, §8

[7] = target: T3, mouse MUPII (mMUPII), Genbank AJ309921, Uniprot P11589, SEQ ID NO: 5, recombinant; experiment: Competitive displacement of 1-AMA, mouse MUPII; type: binding; conditions: for IC50: displacement of 1-AMA, 2 uM protein, 10 uM 1-AMA
Procedure: as §9, §2, §6, §7, §8

rat OBP = conditions: Nespoulous et al 2004; read-out: apparent Kd; cited from earlier work
rOBP-1F = conditions: cited from earlier work
pOBP (adult porcine OBP) = conditions: cited from earlier work
[8] = target: mMUPII (mouse major urinary protein isoform II); conditions: cited from earlier work
[9] = tested on: pOBP, adult porcine OBP isoform; conditions: isothermal calorimetry, Burova et al., 1999, cited from earlier work

Nc1cccc2cc3ccccc3cc12 [1-AMA, 1-aminoanthracene]
saturable binding ([1]; pH 3.0): saturable binding curve was not detected
Kd ([1]; pH 5.0): 1700 nM
Kd ([1]; pH 7.2): 1640 nM
Kd ([2]; pH 3.0): 4300 nM
decrease in binding affinity compared with pH 7.2 ([2]; pH 3.0): 3.4 fold
maximal binding capacity compared with pH 7.2 ([2]; pH 3.0): approximately halved
Kd ([2]; pH 4.0): 2660 nM
decrease in binding affinity compared with pH 7.2 ([2]; pH 4.0): 2 fold
Kd ([2]; pH 5.0): 1450 nM
Kd ([2]; pH 7.2): 1260 nM
Kd ([3]; pH 3.0): 3480 nM
Kd ([3]; pH 4.0): 1970 nM
Kd ([3]; pH 5.0): 1850 nM
Kd ([3]; pH 7.2): 490 nM
binding capacity compared with pH 7.2 ([3]; pH 3.0): less than halved
decrease in binding affinity compared with pH 7.2 ([3]; pH 3.0): 7 fold
decrease in binding affinity compared with pH 7.2 ([3]; pH 4.0): about 4 fold
decrease in binding affinity compared with pH 7.2 ([3]; pH 5.0): about 4 fold
Kd (rat OBP-1F): 600 nM
Kd [4]: 1200 to 1300 nM

COc1nccnc1CC(C)C [IBMP, 2-isobutyl-3-methoxypyrazine]
IC50 (piglet OBP; pH 3.0): 3650 nM
affinity for pIOBP, more strongly than IPMP (piglet OBP; pH 3.0): 1.6 fold
Kd (piglet OBP; pH 3.0): 1470 nM
IC50 (piglet OBP; pH 7.2): 6860 nM
affinity for pIOBP, more strongly than IPMP (piglet OBP; pH 7.2): about 5 fold
Kd (piglet OBP; pH 7.2): 940 nM
Kd ([5]; calculated from IC50): 43 nM
IC50 ([5]; displacement of 1-AMA, 2 uM protein, 10 uM 1-AMA): 250 nM
binding to rOBP-1F more strongly than to mMUPII [5]: ~20 fold
binding to rOBP-1F more strongly than to pIOBP [5]: about 10 fold
displacement of 1-AMA fluorescence [5]: complete displacement
Kd [6]: 1000 nM
displacement of fluorescence ([6]; pH 3.0): complete displacement
displacement of 1-AMA fluorescence ([6]; pH 7.2): complete displacement
Kd ([7]; calculated from IC50, pH 3.0, read-out: Kd): 1080 nM
Kd ([7]; calculated from IC50, pH 7.2, read-out: Kd): 480 nM
IC50 ([7]; pH 3.0): 3410 nM
IC50 ([7]; pH 7.2): 8070 nM
displacement of fluorescence ([7]; pH 3.0): complete displacement
Kd ([7]; pH 3.0, read-out: apparent Kd): 1000 nM
displacement of 1-AMA fluorescence ([7]; pH 7.2): complete displacement
Kd ([7]; pH 7.2, read-out: apparent Kd): 500 nM
Kd (rat OBP): 69 nM
Kd (rOBP-1F): 69 nM
Kd (pOBP (adult porcine OBP)): 500 to 900 nM
Kd [8]: 940 nM
molar binding stoichiometry n ([9]; pH 3.5): 0.417
molar binding stoichiometry n ([9]; pH 4.1): 1.080
affinity to IBMP ([9]; pH 6.6, pH 4.1 and pH 3.5): remained relatively unchanged
molar binding stoichiometry n ([9]; pH 6.6): 1.220
